In patent US5359075A, “Quinophthalone compound” (Mitsui Toatsu Chemicals, Incorporated, priority 1991, dated 1994):

Tests used:
[1] = maximum absorption wavelength; format: physicochemical; details: for λmax: solvent not given
[2] = solubility of each compound in a solvent; format: physicochemical; details: at 20° C., % on weight
Procedure: For the six compounds (B) to (H) of Examples 1 to 6 and the compounds (I) and (J) for comparison, the solubility of each compound in a solvent was measured.

[3] = Resin coloring suitability test: heat resistance; format: physicochemical; details: 0.02 pts. wt., 300° C./10 min.; for Heat resistance (H), ABS: Acrylonitrile/butadiene/styrene; for Heat resistance (H), PC: Polycarbonate; for Heat resistance (H), PET: Polyethylene glycol terephthalate; for Heat resistance (H), PS: Polystyrene
Procedure: For the compounds (B, C, D, F, G and H), a resin coloring suitability test was conducted.
H: Heat resistance, 300° C./10 min., Gray scale judgement
Heat resistance and bleed resistance: […]
judgement, and the fifth grade or more was denoted by .circleincircle. an
the third to fifth grades by .largecircle..

[4] = Dichroic ratio / liquid crystal display element in liquid crystal mixture E-8; details: liquid crystal E-8
Procedure: Each of the dyestuffs of Examples 12 and 13 was added to 9.8 parts of a liquid crystal mixture of a trade name E-8 made by Merck AG, and the mixture was then heated up to about 60° C. to completely dissolve the dyestuff. After cooling, the solution was poured into a liquid crystal display element, and it was then hermetically sealed.
Each sample was put on a light path of a spectrophotometer, and an absorbance A was measured by applying straight polarized light to the liquid crystal in parallel with the arrangement of the liquid crystal and an absorbance A' was measured by applying straight polarized light to the liquid crystal at a right angle to the arrangement of the liquid crystal. By the use of the thus measured absorbances A and A', a dichroic ratio was calculated in accordance with the following formula: […]
Furthermore, as comparative preparation examples, otherwise the same liquid crystals as mentioned above were prepared from compounds for comparison represented by the following formulae (K) and (L).

SMILES | Solubility in Acetone [2] [%] | Solubility in DMF [2] [%] | Solubility in THF [2] [%] | Solubility in Toluene [2] [%] | λmax ([1]; Table 1) [nm] | λmax ([1]; Table 5) [nm] | also measured
CC1CN=C(c2ccc3c(c2)C(=O)C(c2nc4ccccc4cc2O)C3=O)O1 (stereo not drawn) [B] | 3.48 | 6.91 | 6.50 | 3.98 |  |  | maximum absorption wavelength in toluene [1]: 448 nm; Heat resistance (H), ABS [3]: .largecircle. (the third to fifth grades); Heat resistance (H), PC [3]: .circleincircle. (the fifth grade or more); Heat resistance (H), PET [3]: .largecircle. (the third to fifth grades); Heat resistance (H), PS [3]: .circleincircle. (the fifth grade or more)
CC(C)c1nnc(-c2ccc3c(c2)C(=O)C(c2nc4ccccc4cc2O)C3=O)o1 (stereo not drawn) [C] | 3.95 | 7.03 | 6.55 | 4.22 |  |  | maximum absorption wavelength in toluene [1]: 450 nm; Heat resistance (H), ABS [3]: .largecircle. (the third to fifth grades); Heat resistance (H), PC [3]: .circleincircle. (the fifth grade or more); Heat resistance (H), PET [3]: .largecircle. (the third to fifth grades); Heat resistance (H), PS [3]: .circleincircle. (the fifth grade or more)
CC(C)c1ccc2nc(C3C(=O)c4ccccc4C3=O)c(O)cc2c1 [D] | 1.58 | 3.56 | 2.28 | 1.79 |  |  | maximum absorption wavelength in toluene [1]: 450 nm; Heat resistance (H), ABS [3]: .largecircle. (the third to fifth grades); Heat resistance (H), PC [3]: .circleincircle. (the fifth grade or more); Heat resistance (H), PET [3]: .largecircle. (the third to fifth grades); Heat resistance (H), PS [3]: .circleincircle. (the fifth grade or more)
CCCCNC(=O)c1ccc2c(c1)C(=O)C(c1nc3ccc(C(C)C)cc3cc1O)C2=O (stereo not drawn) [Example 7] |  |  |  |  | 450 |  | 
CC(C)NC(=O)c1cc2c(cc1C(=O)NC(C)C)C(=O)C(c1nc3ccc(C(C)C)cc3cc1O)C2=O [Example 8] |  |  |  |  | 460 |  | 
CCCCCCNC(=O)c1ccc2c(c1)C(=O)C(c1nc3ccc(C(C)C)cc3c(Br)c1O)C2=O (stereo not drawn) [Example 9] |  |  |  |  | 450 |  | 
CCCCSc1c(O)c(C2C(=O)c3ccccc3C2=O)nc2ccc(C(C)C)cc12 [Example 10] |  |  |  |  | 450 |  | 
CCCN(CCC)C(=O)c1ccc2c(c1)C(=O)C(c1nc3ccc(C(C)C)cc3cc1O)C2=O (stereo not drawn) [Example 11] |  |  |  |  | 450 |  | 
CCCCCCCCOc1ccc(-c2ccc(N3C(=O)c4cc5c(cc4C3=O)C(=O)C(c3nc4ccc(C(C)C)cc4cc3O)C5=O)cc2)cc1 [Example 12] |  |  |  |  | 455 |  | 
Cc1ccc2oc(-c3ccc(-c4ccc(N5C(=O)c6cc7c(cc6C5=O)C(=O)C(c5nc6ccc(C(C)C)cc6cc5O)C7=O)cc4)cc3)nc2c1 [Example 13] |  |  |  |  | 455 |  | 
CCCCCCCCN1CCN=C1c1ccc2c(c1)C(=O)C(c1nc3ccccc3c(Sc3ccc(C(C)(C)C)cc3)c1O)C2=O (stereo not drawn) [Example 14] |  |  |  |  |  | 450 | 
CC(C)c1ccc2nc(C3C(=O)c4ccc(-c5nnc(C(C)C)s5)cc4C3=O)c(O)cc2c1 (stereo not drawn) [Example 15] |  |  |  |  |  | 450 | 
CC(=O)OCC1(COC(C)=O)COC(c2ccc3c(c2)C(=O)C(c2nc4ccccc4cc2O)C3=O)=N1 (stereo not drawn) [Example 16] |  |  |  |  |  | 450 | 
CCCCCCC1(CC)COC(c2ccc3c(c2)C(=O)C(c2nc4ccccc4cc2O)C3=O)=N1 (stereo not drawn) [Example 17] |  |  |  |  |  | 450 | 
CCC1(COC(=O)C(C)C)COC(c2ccc3c(c2)C(=O)C(c2nc4ccc(C5CCCCC5)cc4cc2O)C3=O)=N1 (stereo not drawn) [Example 19] |  |  |  |  |  | 450 | 
CCC1(COC(C)=O)COC(c2ccc3c(c2)C(=O)C(c2nc4ccc(C(C)C)cc4cc2O)C3=O)=N1 (stereo not drawn) [Example 20] |  |  |  |  |  | 450 | 
CC(=O)OCC1(COC(C)=O)COC(c2ccc3c(c2)C(=O)C(c2nc4ccc(C(C)C)cc4cc2O)C3=O)=N1 (stereo not drawn) [Example 21] |  |  |  |  |  | 450 | 
CCCCN(CCCC)C(=O)c1ccc2c(c1)C(=O)C(c1nc3ccc(C(C)C)cc3cc1O)C2=O (stereo not drawn) [F] | 7.10 | 13.49 | 12.63 | 10.52 |  |  | maximum absorption wavelength in toluene [1]: 450 nm; Heat resistance (H), ABS [3]: .largecircle. (the third to fifth grades); Heat resistance (H), PC [3]: .circleincircle. (the fifth grade or more); Heat resistance (H), PET [3]: .circleincircle. (the fifth grade or more); Heat resistance (H), PS [3]: .circleincircle. (the fifth grade or more)
CCC1(CO)COC(c2ccc3c(c2)C(=O)C(c2nc4ccc(C(C)C)cc4cc2O)C3=O)=N1 (stereo not drawn) [G] | 3.84 | 6.91 | 6.50 | 4.01 |  |  | maximum absorption wavelength in toluene [1]: 450 nm; Heat resistance (H), ABS [3]: .largecircle. (the third to fifth grades); Heat resistance (H), PC [3]: .circleincircle. (the fifth grade or more); Heat resistance (H), PET [3]: .circleincircle. (the fifth grade or more); Heat resistance (H), PS [3]: .circleincircle. (the fifth grade or more)
CCC1(COC(=O)C(C)C)COC(c2ccc3c(c2)C(=O)C(c2nc4ccc(C(C)C)cc4cc2O)C3=O)=N1 (stereo not drawn) [H] | 5.31 | 12.64 | 10.38 | 8.85 |  |  | maximum absorption wavelength in toluene [1]: 450 nm; Heat resistance (H), ABS [3]: .largecircle. (the third to fifth grades); Heat resistance (H), PC [3]: .circleincircle. (the fifth grade or more); Heat resistance (H), PET [3]: .circleincircle. (the fifth grade or more); Heat resistance (H), PS [3]: .circleincircle. (the fifth grade or more)
CCCCCCCCOC(=O)c1ccc2c(c1)C(=O)C(c1nc3ccc(CCCC)cc3cc1O)C2=O (stereo not drawn) [I, reference compound] | 0.33 | 1.20 | 0.98 | 0.51 |  |  | dissolution in the liquid crystal [4]: not completely dissolved
CCCCOC(=O)c1ccc2c(c1)C(=O)C(c1nc3ccc(C)cc3cc1O)C2=O (stereo not drawn) [J, reference compound] | 0.13 | 0.78 | 0.34 | 0.28 |  |  | dissolution in the liquid crystal [4]: not completely dissolved
